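Cells were grown in 96-well plates and exposed to each compound for 48 hours at five concentrations; endpoints were interpolated linearly between bracketing concentrations, or set to the highest concentration if not reached. GI50: concentration for 50% inhibition of growth. TGI denotes the concentration required for complete inhibition of growth.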
Experiments:
Assay in all cases: DTP human tumour cell line panel, 48 h
[1] = system: NCI-H460 lung
[2] = system: CAKI-1 renal
[3] = system: MOLT-4 leukemia
[4] = system: BT-549 breast
[5] = system: SF-539 CNS
[6] = system: HS 578T breast
[7] = system: RXF 393 renal
[8] = system: OVCAR-4 ovarian
[9] = system: CCRF-CEM leukemia
[10] = system: MCF7 breast
[11] = system: MDA-N
[12] = system: SR leukemia

Compound	TGI [1] [µM]	TGI [2] [µM]	TGI [3] [µM]	TGI [4] [µM]	TGI [5] [µM]	TGI [6] [µM]	TGI [7] [µM]	TGI [8] [µM]	TGI [9] [µM]	TGI [10] [µM]	TGI [11] [µM]	TGI [12] [µM]	GI50 [8] [µM]
CCC[C@H](NS(=O)c1ccc(C)cc1)C(C(=O)OCC)=C(c1ccccc1)c1ccccc1 (stereo partly drawn)	36.5	35.6	> 100	48.3	48.5	71.2	29.6	49	> 100	43.2	43.2	–	–
CCN(CC)CCNC(=O)c1cc2cc(NC(=O)c3cc4cc(NC(=O)c5cc6cc(N)ccc6[nH]5)ccc4[nH]3)ccc2[nH]1	> 100	> 100	> 100	> 100	–	> 100	> 100	> 100	> 100	–	> 100	> 100	–
CC(C)=NNC=N/C(C#N)=C(\N)C#N	> 100	> 100	> 100	> 100	> 100	–	> 100	> 100	> 100	> 100	–	> 100	–
Nc1cc(N2CCCC2)nc(=O)n1-c1ccccc1	> 100	> 100	> 100	> 100	> 100	–	–	> 100	> 100	> 100	–	> 100	–
C[n+]1c(-c2ccc(/C=N/NC(=O)C(=O)N/N=C/c3ccc(-c4cn5ccsc5[n+]4C)cc3)cc2)cn2ccsc21	> 100	–	> 100	–	> 100	> 100	–	> 100	> 100	> 100	> 100	> 100	–
Cc1nnc2sc(NN)nn12	> 100	> 100	31.6	> 100	> 100	> 100	> 100	> 100	> 100	> 100	> 100	–	–
c1ccc([P+](Cc2ccccc2C[P+](c2ccccc2)(c2ccccc2)c2ccccc2)(c2ccccc2)c2ccccc2)cc1	> 100	> 100	–	> 100	> 100	> 100	> 100	–	–	> 100	> 100	–	–
COCCCNC(=O)C1=C(C)NC(C)=C(C(=O)NCCCOC)C1	> 100	> 100	> 100	–	> 100	> 100	> 100	> 100	> 100	> 100	> 100	> 100	–
COC1=CCC=C(C[C@@H]2NCCc3cc(OC)c(OC)cc32)C1	> 100	> 100	> 100	–	> 100	–	> 100	> 100	> 100	–	–	–	–
NC(=S)N/N=C1\NC(=O)/C(=C/c2ccc3c(c2)OCO3)S1	> 100	71.8	67.3	84.7	> 100	–	52.3	75.8	–	> 100	97.9	–	–
CCCCC(Sc1cc(Cl)c(C)cc1S(=O)(=O)Nc1n[nH]c(N)n1)C(=O)OC (stereo not drawn)	> 10	> 10	> 10	> 10	> 10	> 10	> 10	> 10	> 10	> 10	> 10	–	–
CC(=O)Nc1ccc2[nH]c(-c3cccc(Cl)c3)cc(=O)c2c1	–	–	> 100	> 100	30	> 100	–	> 100	> 100	> 100	–	> 100	> 100
CCOC(=O)[C@@]12C3C=CC(CC3)[C@]1(C(=O)c1ccccc1)C(=O)C(=O)N2c1ccccc1 (stereo partly drawn)	> 100	> 100	> 100	–	> 100	–	> 100	> 100	–	> 100	> 100	> 100	–
O=C(O)CCc1ccc2c(c1)C(=O)CC2	> 100	–	> 100	> 100	> 100	–	> 100	> 100	> 100	> 100	> 100	> 100	–
CC(C)(C)OC(=O)NCCc1cccc2c1oc1c(CCC(=O)O)cccc12	> 100	> 100	> 100	–	> 100	–	> 100	> 100	> 100	–	–	> 100	–
CC1Oc2c(c(=O)oc3ccccc23)[C@@]1(C)CC1C[C@H](C)C(=O)O1 (stereo partly drawn)	–	38.1	37.2	71.8	64.2	> 100	–	–	32.9	> 100	45.9	–	–
CCCCCCCCCCCCCCCCOCC(Cl)COP(=O)(O)OP(=O)(O)OCC1OC(n2cc(C)c(=O)[nH]c2=O)CC1O (stereo not drawn)	> 100	> 100	> 100	> 100	> 100	86.4	> 100	> 100	> 100	> 100	> 100	–	–
Oc1ccc(N=C2CCC(=C(c3ccccc3)c3ccc(Nc4ccc(O)cc4)cc3)CC2)cc1	> 100	> 100	> 100	–	> 100	–	> 100	> 100	> 100	> 100	–	> 100	–
NCCN1C(=O)CN=C(c2ccc(Cl)cc2)c2cc(Cl)ccc21	34.4	32	73.8	30.3	34.1	35.8	24.5	32.1	64.2	–	31.4	40.7	–
N#C/C(C(=O)Nc1ccc(Cl)cc1)=C(/N)N1CCCCC1	> 100	> 100	> 100	> 100	> 100	–	–	–	> 100	> 100	> 100	> 100	–
CCc1c(Cc2[nH]c(Cc3[nH]c(C=O)c(C)c3CC)c(CC)c2CC)[nH]c(C=O)c1C	> 100	> 100	> 100	–	> 100	–	> 100	> 1	> 100	–	–	> 100	–

Reference: PubChem BioAssay (NCI)
